Results taken from ChEMBL document CHEMBL2029202, “Towards a KCC2 blocker pharmacophore model” (Bioorg Med Chem Lett, 2012).

Biological target: T1, Solute carrier family 12 member 5 (Rattus norvegicus, UniProt Q63633)
T1 sequence (Q63633 whole entry): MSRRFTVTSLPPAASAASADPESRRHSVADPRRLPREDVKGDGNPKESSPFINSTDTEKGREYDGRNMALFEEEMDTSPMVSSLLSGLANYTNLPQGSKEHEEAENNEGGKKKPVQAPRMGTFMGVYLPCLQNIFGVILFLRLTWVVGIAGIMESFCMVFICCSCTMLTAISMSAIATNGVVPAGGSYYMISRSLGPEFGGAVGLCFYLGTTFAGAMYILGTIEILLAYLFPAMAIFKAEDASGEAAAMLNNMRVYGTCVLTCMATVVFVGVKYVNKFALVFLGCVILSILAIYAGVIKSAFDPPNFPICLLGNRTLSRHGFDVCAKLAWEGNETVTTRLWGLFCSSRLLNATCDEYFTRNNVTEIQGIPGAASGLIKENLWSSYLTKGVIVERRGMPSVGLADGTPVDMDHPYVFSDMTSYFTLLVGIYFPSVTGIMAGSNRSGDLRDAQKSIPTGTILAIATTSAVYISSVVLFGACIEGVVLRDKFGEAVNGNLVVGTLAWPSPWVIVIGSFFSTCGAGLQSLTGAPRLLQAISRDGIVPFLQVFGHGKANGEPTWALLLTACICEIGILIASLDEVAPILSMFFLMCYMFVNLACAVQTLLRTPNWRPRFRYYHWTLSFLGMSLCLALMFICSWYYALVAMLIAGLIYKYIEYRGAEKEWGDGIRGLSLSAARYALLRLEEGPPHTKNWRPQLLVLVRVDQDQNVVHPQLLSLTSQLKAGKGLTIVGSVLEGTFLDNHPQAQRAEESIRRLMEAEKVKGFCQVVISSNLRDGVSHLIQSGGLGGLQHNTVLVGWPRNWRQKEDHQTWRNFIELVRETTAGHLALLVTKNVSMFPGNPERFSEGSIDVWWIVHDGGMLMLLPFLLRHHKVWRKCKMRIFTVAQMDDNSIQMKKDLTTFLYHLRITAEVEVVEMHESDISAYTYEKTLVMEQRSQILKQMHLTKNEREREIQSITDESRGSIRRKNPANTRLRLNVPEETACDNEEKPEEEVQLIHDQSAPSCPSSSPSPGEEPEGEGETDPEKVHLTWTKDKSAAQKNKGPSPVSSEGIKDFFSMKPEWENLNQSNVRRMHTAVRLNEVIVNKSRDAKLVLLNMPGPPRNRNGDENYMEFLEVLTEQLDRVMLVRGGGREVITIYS
Assay: Inhibition of rat KCC2 expressed in human Sk-Hep cells assessed as […] off Rb+ flux by atomic absorption spectroscopic analysis
Type: cell-based

Compound	IC50 [nM]
CC(=O)N1CCC[C@@]1(Cc1ccccc1)C(=O)OCc1ccccc1	300
CC(=O)N1CCC[C@]1(Cc1ccccc1)C(=O)OCc1ccccc1	50000
O=C(c1cc2ccccc2oc1=O)N1CCN(Cc2ccccc2)CC1	4000
O=C(c1cc2cc(Br)ccc2oc1=O)N1CCN(Cc2ccccc2)CC1	600
CC(=O)N1CCCC1(Cc1ccccc1)C1=N[C@H](c2ccccc2)CO1 (mixture of isomers)	1300
CC(=O)N1CCCC1(Cc1ccccc1)C(=O)OCc1ccccc1 (racemic)	800
CC(=O)N1c2ccccc2CC1(Cc1ccccc1)C(=O)OCc1ccccc1 (racemic)	200
CC(=O)N1CCCC1(Cc1ccccc1)C(=O)CCc1ccccc1 (racemic)	300
CC(=O)N1CCCC1(Cc1ccc(F)cc1)C(=O)CCc1ccc(F)cc1 (racemic)	200
CC(=O)N1CCCC1(COCc1ccccc1)Cc1ccccc1 (racemic)	20000
CC(=O)N1CCCC1(Cc1ccccc1)c1nc(-c2ccccc2)co1 (racemic)	12600
O=C1CCCC2CCC(Cc3ccccc3)(C(=O)OCc3ccccc3)N12 (racemic)	1000
